Consider 6 compounds from patent US8288429B2, “2-aza-bicyclo[3.3.0]octane derivatives” (Actelion Pharmaceuticals Ltd., priority 2007, dated 2012).

The target in assay [1] is T1, human orexin-1 receptor (Homo sapiens, UniProt O43613).
T1 construct: expressed in transfected cells; host or cells: CHO cells (selected with G418)
T1 sequence (O43613 1-425): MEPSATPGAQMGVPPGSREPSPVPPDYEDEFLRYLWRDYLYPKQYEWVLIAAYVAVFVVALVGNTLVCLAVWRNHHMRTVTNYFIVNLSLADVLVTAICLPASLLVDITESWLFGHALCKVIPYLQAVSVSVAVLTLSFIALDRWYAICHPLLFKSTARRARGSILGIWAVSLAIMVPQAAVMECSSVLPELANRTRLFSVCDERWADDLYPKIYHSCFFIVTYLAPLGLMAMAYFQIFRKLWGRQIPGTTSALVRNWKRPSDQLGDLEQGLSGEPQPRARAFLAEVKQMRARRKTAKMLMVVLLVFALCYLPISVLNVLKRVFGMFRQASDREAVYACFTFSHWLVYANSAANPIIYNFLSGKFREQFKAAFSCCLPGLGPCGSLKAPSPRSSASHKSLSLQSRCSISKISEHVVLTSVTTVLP
In words: Intracellular calcium measurement (FLIPR), orexin-A induced response in CHO cells expressing the human orexin-1 receptor. It is filed as cell-based. As to conditions: 3 nM orexin-A as agonist. As for the experimental part: (§1) The orexin receptor antagonistic activity of the compounds of formula (I) is determined in accordance with the following experimental method.
(§2) Intracellular Calcium Measurements:
(§3) Chinese hamster ovary (CHO) cells expressing the human orexin-1 receptor and the human orexin-2 receptor, respectively, are grown in culture medium (Ham F-12 with L-Glutamine) containing 300 μg/ml G418, 100 U/ml penicillin, 100 μg/ml streptomycin and 10% heat inactivated fetal calf serum (FCS). The cells are seeded at 20,000 cells/well into 384-well black clear bottom sterile plates (Greiner). The seeded plates are incubated overnight at 37° C. in 5% CO2.
(§4) Human orexin-A as an agonist is prepared as 1 mM stock solution in MeOH: water (1:1), diluted in HBSS containing 0.1% bovine serum albumin (BSA), NaHCO3: 0.375 g/l and 20 mM HEPES for use in the assay at a final concentration of 3 nM.
(§5) Antagonists are prepared as 10 mM stock solution in DMSO, then diluted in 384-well plates using DMSO followed by a transfer of the dilutions into in HBSS containing 0.1% bovine serum albumin (BSA), NaHCO3: 0.375 g/l and 20 mM HEPES. On the day of the assay, 50 μl of staining buffer (HBSS containing 1% FCS, 20 mM HEPES, NaHCO3: 0.375 g/l, 5 mM probenecid (Sigma) and 3 μM of the fluorescent calcium indicator fluo-4 AM (1 mM stock solution in DMSO, containing 10% pluronic) is added to each well. The 384-well cell-plates are incubated for 50 min at 37° C. in 5% CO2 followed by equilibration at rt for 30-120 min before measurement.
(§6) Within the Fluorescent Imaging Plate Reader (FLIPR2 or FLIPR Tetra, Molecular Devices), antagonists are added to the plate in a volume of 10 μl/well, incubated for 10 min and finally 10 μl/well of agonist is added. Fluorescence is measured for each well at 1 second intervals, and the height of each fluorescence peak is compared to the height of the fluorescence peak induced by 3 nM orexin-A with vehicle in place of antagonist. For each antagonist, the IC50 value (the concentration of compound needed to inhibit 50% of the agonistic response) is determined. The calculated IC50 values of the compounds may fluctuate depending on the daily cellular assay performance. Fluctuations of this kind are known to those skilled in the art.
(Calcium flux is commonly read through the fluorescence of an indicator in the cells.)

The target in assay [2] is T2, human orexin-2 receptor (Homo sapiens, UniProt O43614).
T2 construct: expressed in transfected cells; host or cells: CHO cells (selected with G418)
T2 sequence (O43614 1-444): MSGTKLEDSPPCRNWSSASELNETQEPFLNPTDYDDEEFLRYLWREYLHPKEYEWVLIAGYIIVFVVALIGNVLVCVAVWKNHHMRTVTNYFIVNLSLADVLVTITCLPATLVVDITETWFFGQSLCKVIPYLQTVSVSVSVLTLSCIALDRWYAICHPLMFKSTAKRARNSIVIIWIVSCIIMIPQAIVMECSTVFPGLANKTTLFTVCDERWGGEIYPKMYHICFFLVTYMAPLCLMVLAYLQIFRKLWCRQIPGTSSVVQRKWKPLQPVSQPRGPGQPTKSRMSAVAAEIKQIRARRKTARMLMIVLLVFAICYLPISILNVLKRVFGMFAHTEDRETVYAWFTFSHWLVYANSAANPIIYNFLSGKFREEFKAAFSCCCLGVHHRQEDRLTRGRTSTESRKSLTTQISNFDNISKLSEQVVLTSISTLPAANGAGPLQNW
In words: Intracellular calcium measurement (FLIPR), orexin-A induced response in CHO cells expressing the human orexin-2 receptor. As to conditions: 3 nM orexin-A as agonist. It is filed as cell-based. Here is the method: as §1, §2, §3, §4, §5, §6

Setting [3] is: measured using FLIPR2, read-out: OX1 IC50.
The mark [4] stands for this setting: measured using FLIPR2, read-out: OX2 IC50.
The mark [5] stands for this setting: measured using FLIPR Tetra (footnote 1), read-out: OX1 IC50.
The mark [6] stands for this setting: measured using FLIPR Tetra (footnote 1), read-out: OX2 IC50.

Molecules are shown by their SMILES. Where two headings read alike, the source gives them in different places.

In general, IC50 refers to the concentration at which inhibition is half-maximal.

Turning to `Cc1ccc(-c2sc(C)nc2C(=O)N2[C@H](CNC(=O)c3c(C)nc4sccn34)C[C@@H]3CCC[C@@H]32)cc1` [Example 1, 6-Methyl-imidazo[2,1-b]thiazole-5-carboxylic acid [(1S,3S,5S)-2-(2-methyl-5-p-tolyl-thiazole-4-carbonyl)-2-azabicyclo[3.3.0]octane-3-ylmethyl]-amide], the IC50 worked out at 17 nM in assay [1] (setting [3]) and 40 nM in assay [2] (setting [4]).
For `Cc1nc2sccn2c1C(=O)NC[C@@H]1C[C@@H]2CCC[C@@H]2N1C(=O)c1nc(C2CC2)sc1-c1cccc(C(F)(F)F)c1` [Example 7, 6-Methyl-imidazo[2,1-b]thiazole-5-carboxylic acid {(1S,3S,5S)-2-[2-cyclopropyl-5-(3-trifluoromethyl-phenyl)-thiazole-4-carbonyl]-2-azabicyclo[3.3.0]octane-3-ylmethyl}-amide], the IC50 in assay [1] (setting [3]) is 18 nM; in assay [2] (setting [4]) it was 95 nM.
For `Cc1nc(C(=O)N2[C@H](CNC(=O)c3noc4ccccc34)C[C@@H]3CCC[C@@H]32)c(-c2cccc(Cl)c2)s1` [Example 9, Benzo[d]isoxazole-3-carboxylic acid {(1S,3S,5S)-2-[5-(3-chloro-phenyl)-2-methyl-thiazole-4-carbonyl]-2-azabicyclo[3.3.0]octane-3-ylmethyl}-amide] the same measures were 275 nM and 283 nM.
`Cc1nc(C(=O)N2[C@H](CNC(=O)c3cccc4c3CCO4)C[C@@H]3CCC[C@@H]32)c(-c2cccc(C(F)(F)F)c2)s1` [Example 16, 2,3-Dihydro-benzofuran-4-carboxylic acid {(1S,3S,5S)-2-[2-methyl-5-(3-trifluoromethyl-phenyl)-thiazole-4-carbonyl]-2-azabicyclo[3.3.0]octane-3-ylmethyl}-amide]: the IC50 is 11 nM in assay [1] (setting [5]) and 12 nM in assay [2] (setting [6]).
The like results for `Cc1nc(C(=O)N2[C@H](CNC(=O)c3cccc4c3CCO4)C[C@@H]3CCC[C@@H]32)c(-c2ccc(F)c(Br)c2)s1` [Example 19, 2,3-Dihydro-benzofuran-4-carboxylic acid {(1S,3S,5S)-2-[5-(3-bromo-4-fluoro-phenyl)-2-methyl-thiazole-4-carbonyl]-2-azabicyclo[3.3.0]octane-3-ylmethyl}-amide] were, in that order, 37 nM and 32 nM.
For `O=C(NC[C@@H]1C[C@@H]2CCC[C@@H]2N1C(=O)c1nc(C2CC2)sc1-c1ccccc1)c1cccc2c1CCO2` [Example 26, 2,3-Dihydro-benzofuran-4-carboxylic acid [(1S,3S,5S)-2-(2-cyclopropyl-5-phenyl-thiazole-4-carbonyl)-2-azabicyclo[3.3.0]octane-3-ylmethyl]-amide] the same measures were 48 nM and 41 nM.
